# According to patent US7304079B2, “Substituted indolealkanoic acids” (The Institute for Pharmaceutical Discovery, LLC, priority 1998, dated 2007):
# Target: T1, human aldehyde reductase (hALR1) (Homo sapiens, UniProt P14550)
# T1 sequence (P14550 1-325): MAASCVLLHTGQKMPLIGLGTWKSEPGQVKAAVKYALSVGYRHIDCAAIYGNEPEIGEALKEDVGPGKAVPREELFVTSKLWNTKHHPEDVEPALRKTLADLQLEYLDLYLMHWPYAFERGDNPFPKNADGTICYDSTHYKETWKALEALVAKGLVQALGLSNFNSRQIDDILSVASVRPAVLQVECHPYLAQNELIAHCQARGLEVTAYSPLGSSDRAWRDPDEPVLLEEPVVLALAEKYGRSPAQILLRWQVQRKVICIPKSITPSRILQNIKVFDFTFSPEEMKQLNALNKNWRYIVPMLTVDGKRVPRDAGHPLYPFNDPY
# Assay: human aldehyde reductase (hALR1) inhibition
# Format: biochemical
# Experimental: In a second assay, a number of the same compounds were tested for their ability to inhibit aldehyde reductase (hALR1), a structurally related enzyme.
compound,measurement,value
"O=C(O)Cn1cc(Cc2nc3c(F)c(F)cc(F)c3s2)c2ccc(N3CCOCC3)cc21 [Example 18, 6-morpholino-3-(4,5,7-trifluorobenzothiazol-2-yl)methyl-indole-N-acetic acid]",IC50,> 100 nM
